Drawing on US20250092014A1, “COMPOUNDS AND METHODS OF ACTIVATING LIPOPROTEIN LIPASE” (Metrea Biosciences, Inc., priority 2021, published 2025), this text covers EC50 for 23 molecules.

Structures can show the parent of a compound that is named as a salt.

This assay addresses T1, LPL:sGPIHBP1 complex (Homo sapiens, UniProt P06858).
T1 sequence (P06858 28-475): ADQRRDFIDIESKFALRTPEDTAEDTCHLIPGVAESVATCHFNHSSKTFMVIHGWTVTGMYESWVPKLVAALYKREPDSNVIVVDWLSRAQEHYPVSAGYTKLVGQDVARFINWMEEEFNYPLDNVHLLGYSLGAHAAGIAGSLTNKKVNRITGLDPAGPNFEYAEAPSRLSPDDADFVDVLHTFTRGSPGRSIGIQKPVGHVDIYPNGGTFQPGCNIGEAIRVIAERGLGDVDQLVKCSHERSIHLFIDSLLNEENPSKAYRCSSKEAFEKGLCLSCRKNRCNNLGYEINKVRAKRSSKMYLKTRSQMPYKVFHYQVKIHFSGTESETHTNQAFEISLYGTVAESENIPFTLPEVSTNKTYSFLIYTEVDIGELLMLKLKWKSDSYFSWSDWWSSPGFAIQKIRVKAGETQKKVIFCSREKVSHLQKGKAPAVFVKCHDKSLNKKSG
T1 sequence (Q8IV16 21-151 partner limits assumed): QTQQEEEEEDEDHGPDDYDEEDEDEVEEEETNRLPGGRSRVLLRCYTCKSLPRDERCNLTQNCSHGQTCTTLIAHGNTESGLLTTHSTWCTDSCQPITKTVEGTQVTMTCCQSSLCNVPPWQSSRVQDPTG
Kind of assay: RB assay (LPL:sGPIHBP1 pre-incubated with ANGPTL4, RB substrate). Type of assay: biochemical. Conditions: read-out: RB qAC50. How it is done:
The assay was performed in black 1536-well plates using purified proteins. To identify compounds that stimulate LPL activity either by directly activating LPL or by inhibiting the antagonist ANGPTL4, the LPL:sGPIHBP1 complex was pre-incubated with ANGPTL4 to decrease LPL activity by 80%. After a 60 min pre-incubation, the reaction was started by adding the RB substrate. 30 min after RB addition, the enzymatic reaction was stopped using SDS. Fluorescence intensity was measured 2 h after stopping the reaction.
20 or 40 nl of compound solution in 100% DMSO were placed in test plate. Then was added LPL:sGPIHBP1 to all wells (diluted in assay buffer to 5 nM; 2 μl/well). This was followed by an addition of ANGPTL4 to compounds and neutral controls (diluted in assay buffer to 20 nM; 1 μl/well). A buffer solution was added to the stimulator control (1 μl/well). The plates were then centrifuged and pre-incubated for 60 min at RT. The reaction was started by adding substrate to all wells (diluted in assay buffer to 40 μM, 1 μl/well). The plated were centrifuged (800 rpm for 1 min) and incubated 30 min at RT (=reaction time). The reaction was stopped by adding SDS to all wells (diluted in water to 2.5%, 2 μl/well); incubated 2 h at RT. The fluorescence intensity (ex 540 nm/em 590 nm) was measured on a Pherastar (BMG) using 5 flashes.
Take `O=C(O)Cc1cc(F)ccc1NC(=O)c1ccc(N2CCCCC2)c(NC(=O)c2nn(CC(F)(F)F)c3ccncc23)c1` [Compound 107, 2-(5-fluoro-2-(4-(piperidin-1-yl)-3-(1-(2,2,2-trifluoroethyl)-1H-pyrazolo[4,3-c]pyridine-3-carboxamido)benzamido)phenyl)acetic acid]: the EC50 was > 7.1 µM.

For `O=C(O)Cc1cc(F)ccc1NC(=O)c1ccc(N2CCCCC2)c(NC(=O)c2cn3ccccc3n2)c1` [Compound 109, 2-(5-fluoro-2-(3-(imidazo[1,2-a]pyridine-2-carboxamido)-4-(piperidin-1-yl)benzamido)phenyl)acetic acid], the EC50 was > 25 µM.

For the molecule `Cc1nc(C(=O)Nc2cc(C(=O)Nc3ccc(F)cc3CC(=O)O)ccc2N2CCCCC2)n2ccccc12` [Compound 110, 2-(5-fluoro-2-(3-(1-methylimidazo[1,5-a]pyridine-3-carboxamido)-4-(piperidin-1-yl)benzamido)phenyl)acetic acid], the EC50 is > 7.1 µM.

With `O=C(O)Cc1cc(F)ccc1NC(=O)c1ccc(N2CCCCC2)c(NC(=O)c2nn(CC(F)(F)F)c3cccnc23)c1` [Compound 111, 2-(5-fluoro-2-(4-(piperidin-1-yl)-3-(1-(2,2,2-trifluoroethyl)-1H-pyrazolo[4,3-b]pyridine-3-carboxamido)benzamido)phenyl)acetic acid], the EC50 was found to be 23 µM.

On to `O=C(O)Cc1cc(F)ccc1NC(=O)c1ccc(N2CCCCC2)c(NC(=O)c2nn(CC(F)(F)F)c3cnccc23)c1` [Compound 112, 2-(5-fluoro-2-(4-(piperidin-1-yl)-3-(1-(2,2,2-trifluoroethyl)-1H-pyrazolo[3,4-c]pyridine-3-carboxamido)benzamido)phenyl)acetic acid], for which the EC50 came to 6.4 µM.

On to `O=C(O)Cc1cc(F)ccc1NC(=O)c1ccc(N2CCCCC2)c(NC(=O)c2nn(CC(F)(F)F)c3ncccc23)c1` [Compound 113, 2-(5-fluoro-2-(4-(piperidin-1-yl)-3-(1-(2,2,2-trifluoroethyl)-1H-pyrazolo[3,4-b]pyridine-3-carboxamido)benzamido)phenyl)acetic acid], for which the EC50 worked out at 9 µM.

Consider `O=C(O)Cc1cc(F)ccc1NC(=O)c1ccc(N2CCCCC2)c(NC(=O)c2nn(CC(F)(F)F)cc2-c2ccccc2)c1` [Compound 115, 2-(5-fluoro-2-(3-(4-phenyl-1-(2,2,2-trifluoroethyl)-1H-pyrazole-3-carboxamido)-4-(piperidin-1-yl)benzamido)phenyl)acetic acid], for which the EC50 was > 7.1 µM.

Consider `O=C(O)Cc1cc(F)ccc1NC(=O)c1ccc(N2CCCCC2)c(NC(=O)c2cc(-c3ccccc3)n(CC(F)(F)F)n2)c1` [Compound 116, 2-(5-fluoro-2-(3-(5-phenyl-1-(2,2,2-trifluoroethyl)-1H-pyrazole-3-carboxamido)-4-(piperidin-1-yl)benzamido)phenyl)acetic acid], for which the EC50 was 23 µM.

As for `O=C(O)Cc1cc(F)ccc1NC(=O)c1ccc(N2CCCCC2)c(NC(=O)c2nn(CC(F)(F)F)cc2C2CC2)c1` [Compound 117, 2-(2-(3-(4-cyclopropyl-1-(2,2,2-trifluoroethyl)-1H-pyrazole-3-carboxamido)-4-(piperidin-1-yl)benzamido)-5-fluorophenyl)acetic acid], the EC50 was > 25 µM.

For `O=C(O)Cc1cc(F)ccc1NC(=O)c1ccc(N2CCCCC2)c(NC(=O)c2nn(CC3CCOC3)c3ccccc23)c1` (centres unmarked) [Compound 118, 2-(5-fluoro-2-(4-(piperidin-1-yl)-3-(1-((tetrahydrofuran-3-yl)methyl)-1H-indazole-3-carboxamido)benzamido)phenyl)acetic acid], the EC50 was > 7.1 µM.

Turning to `O=C(O)Cc1cc(F)ccc1NC(=O)c1ccc(N2CCCCC2)c(NC(=O)c2nn(CC3CCCO3)c3ccccc23)c1` (centres unmarked) [Compound 119, 2-(5-fluoro-2-(4-(piperidin-1-yl)-3-(1-((tetrahydrofuran-2-yl)methyl)-1H-indazole-3-carboxamido)benzamido)phenyl)acetic acid], the EC50 came out at 6.6 µM.

For the molecule `O=C(O)Cc1cc(F)ccc1NC(=O)c1ccc(N2CCCCC2)c(NC(=O)c2nn(CCC(F)(F)F)c3ccccc23)c1` [Compound 121, 2-(5-fluoro-2-(4-(piperidin-1-yl)-3-(1-(3,3,3-trifluoropropyl)-1H-indazole-3-carboxamido)benzamido)phenyl)acetic acid], the EC50 turned out to be 4.2 µM.

In the case of `C#CCn1nc(C(=O)Nc2cc(C(=O)Nc3ccc(F)cc3CC(=O)O)ccc2N2CCCCC2)c2ccccc21` [Compound 122, 2-(5-fluoro-2-(4-(piperidin-1-yl)-3-(1-(prop-2-yn-1-yl)-1H-indazole-3-carboxamido)benzamido)phenyl)acetic acid], the EC50 amounted to 3.8 µM.

Consider `CC#CCn1nc(C(=O)Nc2cc(C(=O)Nc3ccc(F)cc3CC(=O)O)ccc2N2CCCCC2)c2ccccc21` [Compound 123, 2-(2-(3-(1-(but-2-yn-1-yl)-1H-indazole-3-carboxamido)-4-(piperidin-1-yl)benzamido)-5-fluorophenyl)acetic acid], for which the EC50 was found to be 3.1 µM.

Consider `Cc1cc(Cn2nc(C(=O)Nc3cc(C(=O)Nc4ccc(F)cc4CC(=O)O)ccc3N3CCCCC3)c3ccccc32)no1` [Compound 124, 2-(5-fluoro-2-(3-(1-((5-methylisoxazol-3-yl)methyl)-1H-indazole-3-carboxamido)-4-(piperidin-1-yl)benzamido)phenyl)acetic acid], for which the EC50 was determined as 4.7 µM.

On to `N#CC1(Cn2nc(C(=O)Nc3cc(C(=O)Nc4ccc(F)cc4CC(=O)O)ccc3N3CCCCC3)c3ccccc32)CC1` [Compound 127, 2-(2-(3-(1-((1-cyanocyclopropyl)methyl)-1H-indazole-3-carboxamido)-4-(piperidin-1-yl)benzamido)-5-fluorophenyl)acetic acid], for which the EC50 came out at 4.3 µM.

In the case of `O=C(O)Cc1cc(F)ccc1NC(=O)c1ccc(N2CCCCC2)c(NC(=O)c2cn(CC(F)(F)F)c3ccccc23)c1` [Compound 128, 2-(5-fluoro-2-(4-(piperidin-1-yl)-3-(1-(2,2,2-trifluoroethyl)-1H-indole-3-carboxamido)benzamido)phenyl)acetic acid], the EC50 is 0.66 µM.

For `Cc1c(C(=O)Nc2cc(C(=O)Nc3ccc(F)cc3CC(=O)O)ccc2N2CCCCC2)c2ccccc2n1CC(F)(F)F` [Compound 130, 2-(5-fluoro-2-(3-(2-methyl-1-(2,2,2-trifluoroethyl)-1H-indole-3-carboxamido)-4-(piperidin-1-yl)benzamido)phenyl)acetic acid], the EC50 is > 25 µM.

With `O=C(O)Cc1cc(F)ccc1NC(=O)c1ccc(N2CCCCC2)c(NC(=O)c2nn(CC3CCCOC3)c3ccccc23)c1` (centres unmarked) [Compound 133, 2-(5-fluoro-2-(4-(piperidin-1-yl)-3-(1-((tetrahydro-2H-pyran-3-yl)methyl)-1H-indazole-3-carboxamido)benzamido)phenyl)acetic acid], the EC50 stood at 4.2 µM.

For `O=C(O)Cc1cc(F)ccc1NC(=O)c1ccc(N2CCCCC2)c(NC(=O)c2cc(-c3ccccc3)nn2CC(F)(F)F)c1` [Compound 134, 2-(5-fluoro-2-(3-(3-phenyl-1-(2,2,2-trifluoroethyl)-1H-pyrazole-5-carboxamido)-4-(piperidin-1-yl)benzamido)phenyl)acetic acid], the EC50 is 4.4 µM.

As for `O=C(O)Cc1cc(F)ccc1NC(=O)c1ccc(N2CCCCC2)c(NC(=O)c2c3ccccc3nn2CC(F)(F)F)c1` [Compound 135, 2-(5-fluoro-2-(4-(piperidin-1-yl)-3-(2-(2,2,2-trifluoroethyl)-2H-indazole-3-carboxamido)benzamido)phenyl)acetic acid hydrochloride], the EC50 came to 12 µM.

Take `O=C(O)Cc1cc(F)ccc1NC(=O)c1ccc(N2CCCCC2)c(NC(=O)c2nn(C[C@@H]3CCCO3)c3ccccc23)c1` [Compound 136, (S)-2-(5-fluoro-2-(4-(piperidin-1-yl)-3-(1-((tetrahydrofuran-2-yl)methyl)-1H-indazole-3-carboxamido)benzamido)phenyl)acetic acid]: the EC50 is > 25 µM.

Consider `O=C(O)Cc1cc(F)ccc1NC(=O)c1ccc(N2CCCCC2)c(NC(=O)c2nn(C[C@H]3CCCO3)c3ccccc23)c1` [Compound 137, (R)-2-(5-fluoro-2-(4-(piperidin-1-yl)-3-(1-((tetrahydrofuran-2-yl)methyl)-1H-indazole-3-carboxamido)benzamido)phenyl)acetic acid], for which the EC50 amounted to 3.8 µM.
